Results on 3 compounds are retold here after ChEMBL document CHEMBL4613328, “Dual Targeting of Norepinephrine Transporter (NET) Function and Thyrointegrin αvβ3 Receptors in the Treatment of Neuroblastoma” (J Med Chem, 2020).

Active and inactive are the calls of the source. The calls are words filed in the database; no cut-off is given here.

The subject of data set [1] is SK-N-FI. As to the kind of experiment: Antitumor activity against human SK-N-FI cells xenografted in Ncr nude mouse assessed as inhibition of neuroblastoma tumor cell viability at 1 to 10 mg/kg, sc dosed daily for 15 days relative to control. In kind it is functional. For orientation: In xenograft studies the graft and the host belong to different species.
Data set [2] concerns SK-N-FI. The data set is described as follows: Antitumor activity against human SK-N-FI cells xenografted in Ncr nude mouse assessed as inhibition of tumor growth by measuring suppression of tumor weight at 3 mg/kg, sc dosed daily for 15 days relative to control. It is filed as functional. Conditions: for inhibition in vivo at 3 mg/kg: 360 h, read-out: TGI.
Data set [3] can be described thus: Drug uptake in nucleus of human SK-N-FI cells using Cy7-labeled compound incubated for 4 hrs by confocal microscopy. In kind it is ADME, subcellular.
For data set [4], the system named is SK-N-FI. As to the kind of experiment: Inhibition of cell proliferation of human SK-N-FI cells at 30 to 100 uM incubated for 24 hrs relative to control. In kind it is functional.
Data set [5] deals with SK-N-FI. As to the kind of experiment: Antitumor activity against human SK-N-FI cells xenografted in Ncr nude mouse assessed as inhibition of tumor growth at 1 to 10 mg/kg, sc dosed daily up to 15 days relative to control. It is filed as functional.
The test system of data set [6] is SK-N-FI. The data set is described as follows: Antitumor activity against human SK-N-FI cells xenografted in Ncr nude mouse assessed as increase in neuroblastoma tumor apoptosis and necrosis at 1 to 10 mg/kg, sc dosed daily for 15 days relative to control. In kind it is functional.
Data set [7] relates to SK-N-FI. The data set is described as follows: Inhibition of cell proliferation of human SK-N-FI cells at 30 to 100 uM incubated for 48 hrs relative to control. In kind it is functional.
Data set [8] has as its target T1, Integrin alpha-V/beta-3 (Homo sapiens, UniProt P05106+P06756). As to the kind of experiment: Binding affinity to […] integrin alphaVbeta3 in human SK-N-FI cells using Cy7-labeled compound incubated for 4 hrs by confocal microscopy. In kind it is cell-based.
Data set [9] concerns the target T1, Integrin alpha-V/beta-3. As to the kind of experiment: Binding affinity to purified integrin alphaVbeta3 receptor (unknown origin) incubated for 2 hrs. It is filed as protein-complex assay.
Target sequence in this assay (P05106 27-788 limits assumed): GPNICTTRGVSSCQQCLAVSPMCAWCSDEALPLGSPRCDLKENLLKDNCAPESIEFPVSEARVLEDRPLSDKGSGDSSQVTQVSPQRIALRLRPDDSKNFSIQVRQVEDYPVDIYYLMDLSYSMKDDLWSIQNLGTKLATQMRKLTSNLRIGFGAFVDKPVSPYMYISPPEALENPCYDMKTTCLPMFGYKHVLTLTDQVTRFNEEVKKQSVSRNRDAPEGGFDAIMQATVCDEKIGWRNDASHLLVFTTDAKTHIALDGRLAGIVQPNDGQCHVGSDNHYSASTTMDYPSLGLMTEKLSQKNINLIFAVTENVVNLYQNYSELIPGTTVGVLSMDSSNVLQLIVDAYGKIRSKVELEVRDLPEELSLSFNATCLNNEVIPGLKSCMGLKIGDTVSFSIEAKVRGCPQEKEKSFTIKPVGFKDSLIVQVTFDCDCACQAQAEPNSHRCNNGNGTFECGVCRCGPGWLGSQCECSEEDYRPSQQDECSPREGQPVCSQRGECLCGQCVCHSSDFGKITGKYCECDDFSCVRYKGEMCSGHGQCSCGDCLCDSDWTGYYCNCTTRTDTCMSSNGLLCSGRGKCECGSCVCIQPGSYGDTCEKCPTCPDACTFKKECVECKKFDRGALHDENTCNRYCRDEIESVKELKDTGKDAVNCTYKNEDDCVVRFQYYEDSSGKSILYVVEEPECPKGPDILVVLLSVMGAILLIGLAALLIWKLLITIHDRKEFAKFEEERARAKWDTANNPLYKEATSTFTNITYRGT
Target sequence in this assay (P06756 31-889 limits assumed): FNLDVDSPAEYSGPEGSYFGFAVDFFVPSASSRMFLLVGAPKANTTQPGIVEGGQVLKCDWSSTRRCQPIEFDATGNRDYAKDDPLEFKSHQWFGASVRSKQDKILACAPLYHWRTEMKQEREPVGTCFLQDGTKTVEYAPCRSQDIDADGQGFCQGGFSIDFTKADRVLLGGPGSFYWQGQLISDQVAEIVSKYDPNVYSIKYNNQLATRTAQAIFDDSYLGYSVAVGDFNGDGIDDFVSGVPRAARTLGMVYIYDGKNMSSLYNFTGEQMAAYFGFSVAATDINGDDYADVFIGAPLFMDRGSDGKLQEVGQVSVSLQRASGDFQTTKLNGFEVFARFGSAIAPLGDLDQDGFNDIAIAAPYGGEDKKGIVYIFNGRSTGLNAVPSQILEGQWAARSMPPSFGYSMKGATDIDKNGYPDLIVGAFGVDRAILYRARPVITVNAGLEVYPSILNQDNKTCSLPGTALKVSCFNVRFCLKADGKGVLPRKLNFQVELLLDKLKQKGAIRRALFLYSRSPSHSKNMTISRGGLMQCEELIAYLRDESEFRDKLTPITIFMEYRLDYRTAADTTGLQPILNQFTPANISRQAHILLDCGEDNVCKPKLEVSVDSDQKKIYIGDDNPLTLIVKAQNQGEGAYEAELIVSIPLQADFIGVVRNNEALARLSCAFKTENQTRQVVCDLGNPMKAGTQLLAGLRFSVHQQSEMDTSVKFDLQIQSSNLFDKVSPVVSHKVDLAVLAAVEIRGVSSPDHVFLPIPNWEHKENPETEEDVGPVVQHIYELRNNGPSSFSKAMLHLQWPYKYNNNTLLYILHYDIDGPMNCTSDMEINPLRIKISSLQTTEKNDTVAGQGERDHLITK
Target sequence in this assay (P06756 891-1048 limits assumed): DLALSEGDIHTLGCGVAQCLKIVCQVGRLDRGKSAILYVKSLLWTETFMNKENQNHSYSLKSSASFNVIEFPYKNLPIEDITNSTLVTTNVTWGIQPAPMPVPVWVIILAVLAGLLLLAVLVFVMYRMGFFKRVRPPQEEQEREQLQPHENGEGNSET
Data set [10] can be described thus: Drug uptake in human SK-N-FI cells using Cy7-labeled compound incubated for 4 hrs by confocal microscopy. It is filed as ADME, cell-based.

In the case of `N=C(N)NCc1ccc(OCCOCCOCCOCCOCCOCCOCCn2cc(COc3c(I)cc(Oc4c(I)cc(CC(=O)O)cc4I)cc3I)nn2)cc1`, the entries for the “inhibition (INH)” value in data set [1], in data set [4] and in [7] were 80 - 100%, 30% and 50 - 60%, respectively. Besides, in data set [2], the inhibition in vivo at 3 mg/kg was 80 to 100%. The Drug uptake result in data set [3] is listed as “Not Active”. For the same compound, the TGI in [5] is 80 - 100%. For the same compound, the Activity in [6] is listed as 80 - 100%. The result in data set [8] was Active.

As usually defined, the IC50 is the concentration needed to halve the response being measured. A higher IC50 goes with a need for much substance. On to `O=C(O)Cc1cc(I)c(Oc2cc(I)c(O)c(I)c2)c(I)c1` [TETRAC], for which the inhibition in vivo at 3 mg/kg in data set [2] was 40 to 50%. Besides, the Drug uptake result in data set [3] is given as “Active”. This compound also came in with an IC50 in data set [9] of 62.4 nM.

For the compound `N=C(N)NCc1ccccc1`, in [2], the TGI entry was “inactive”. In [10], this compound yielded a Drug uptake of 90 to 100%.
